≈ marks a conversion by molar mass, not a printed value. Where two headings read alike, the source gives them in different places. *1 amine or outer side, *2 acyl side, *3 side chain or, on linkers, in order; H or OH if unused. Where a SMILES comes first, the peptide text is derived from it. Bridges are numbered along the chain shown (N, C = ends). [ ]: non-standard residue; d: D form. The star is where a group is joined. Phe(3,5-F2) = N[C@@H](Cc1cc(F)cc(F)c1)C(=O)O; Pro(4S-Me) = C[C@@H]1CN[C@H](C(=O)O)C1; NHPh(4-CF3) = FC(F)(F)c1ccc(N*)cc1; NH(4-Me-phenyl) = Cc1ccc(N*)cc1; aThr = C[C@H](O)[C@H](N)C(=O)O; Pip = O=C(O)[C@@H]1CCCCN1; CO = O=C([*:1])[*:2]
Assays:
Format in all cases: cell-based
[1] = system: Staphylococcus aureus, NRS70; assay: Minimal inhibitory concentration assay (microbroth dilution)
Outline: (§1)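 CLSI broth microdilution; 2-fold series from 200 μM final; inoculum ~10^5 cfu/mL; 37 °C, aerobic, overnight; visual MIC = lowest conc. without growth. The ClpP-inactivated USA 300 strain is the comparator for ClpP-dependent killing.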

[2] = system: Enterococcus faecalis, ATCC 33186; assay: as above
Outline: as §1

[3] = system: Bacillus subtilis, ATCC 23857; assay: as above
Outline: as §1

[4] = system: Streptococcus pneumoniae, DAW27; assay: as above; conditions: DAW27, read-out: Minimal Inhibitory Concentrations S. pneumoniae DAW27
Outline: as §1

[5] = system: Staphylococcus aureus, ATCC 29213; assay: as above; conditions: ATCC29213, read-out: Minimal Inhibitory Concentrations S. aureus ATCC 29213
Outline: as §1

[6] = system: Streptococcus pyogenes, ATCC 700294; assay: as above
Outline: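 CLSI broth microdilution: two-fold serial compound dilutions in appropriate broth, inoculated and incubated aerobically overnight at 37° C. MIC read visually as lowest concentration preventing bacterial growth.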

[7] = system: Streptococcus pneumoniae, R6; assay: Minimal inhibitory concentration assay; conditions: read-out: Minimal Inhibitory Concentrations S. pneumoniae R6
Outline: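 Microbroth dilution with two-fold serial compound dilutions in broth, incubated aerobically overnight at 37° C. MIC taken as the lowest concentration preventing bacterial growth.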

[8] = system: Vero (kidney epithelial cells; ATCC CCL-81); assay: Cytotoxicity assay (CellTiter-Glo cell viability, 72 hours); conditions: Vero cells, 72 hours, growth inhibition; read-out: Cytotoxicity IC50
Outline: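 Vero cells, 5000/well, grown overnight at 37° C, 5% CO2 in DMEM with 10% FBS, then exposed to serial compound dilutions or DMSO for 72 hours. Viability read by CellTiter-Glo luminescence. IC50 from duplicate wells, reported as range over two independent experiments.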

[9] = system: Staphylococcus aureus, USA 300; assay: Minimal inhibitory concentration assay; conditions: USA300, read-out: Minimal Inhibitory Concentrations S. aureus USA 300
Outline: as §1

[10] = system: Staphylococcus aureus, USA 300 wherein ClpP is inactivated; assay: Minimal inhibitory concentration assay
Outline: as §1

[11] = Staphylococcus aureus, NRS70; read-out: Minimal Inhibitory Concentrations S. aureus NRS70
[12] = Enterococcus faecalis, ATCC33186; read-out: Minimal Inhibitory Concentrations E. faecalis ATCC 33186
[13] = Bacillus subtilis, ATCC23857; read-out: Minimal Inhibitory Concentrations B. subtilis ATCC 23857
[14] = Streptococcus pyogenes, ATCC700294; read-out: Minimal Inhibitory Concentrations S. pyogenes ATCC 700294
[15] = Staphylococcus aureus, NRS70, read-out: Minimal Inhibitory Concentrations S. aureus NRS70
[16] = Enterococcus faecalis, ATCC33186, read-out: Minimal Inhibitory Concentrations E. faecalis ATCC 33186
[17] = Bacillus subtilis, ATCC23857, read-out: Minimal Inhibitory Concentrations B. subtilis ATCC 23857
[18] = Streptococcus pyogenes, ATCC700294, read-out: Minimal Inhibitory Concentrations S. pyogenes ATCC 700294

Row | Structure (SMILES) | MIC [1, 11] [µM] | MIC [2, 12] [µM] | MIC [3, 13] [µM] | MIC [4] [µM] | MIC [5] [µM] | MIC [6, 14] [µM] | MIC [7] [µM] | IC50 [8] [µM] | MIC [1, 15] [µM] | MIC [2, 16] [µM] | MIC [3, 17] [µM] | MIC [9] [µM] | Minimal Inhibitory Concentrations S. aureus USA 300 ΔClpP [10] [µM] | MIC [6, 18] [µM]
1 | CCc1cccc(NC(=O)N[C@@H](Cc2ccccc2)C(=O)N[C@H]2COC(=O)[C@@H]3C[C@@H](C)CN3C(=O)[C@H](C)NC(=O)[C@@H]3CCCCN3C(=O)[C@@H]3CCCN3C2=O)c1 [Compound 10, (S)—N-((2R,6S,8aS,14aS,20S,23aS)-2,6-dimethyl-5,8,14,19,23-pentaoxooctadecahydro-1H,5H,14H,19H-pyrido[2,1-i]dipyrrolo[2,1-c:2′,1′-l][1]oxa[4,7,10,13]tetraazacyclohexadecin-20-yl)-2-(3-(3-ethylphenyl)ureido)-3-phenylpropanamide] | 0.6 (≈ 0.463 µg/mL) | 0.3 (≈ 0.232 µg/mL) | 0.6 (≈ 0.463 µg/mL) | 0.3 (≈ 0.232 µg/mL) | 0.6 (≈ 0.463 µg/mL) | 0.6 (≈ 0.463 µg/mL) |  |  |  |  |  |  |  | 
2 | C[C@@H]1C[C@H]2C(=O)OC[C@H](NC(=O)[C@H](Cc3cc(F)cc(F)c3)NC(=O)Nc3ccc(OC(F)(F)F)cc3)C(=O)N3CCC[C@H]3C(=O)N3CCCC[C@H]3C(=O)N[C@@H](C)C(=O)N2C1 [Compound 13, (S)-3-(3,5-difluorophenyl)-N-((2R,6S,8aS,14aS,20S,23aS)-2,6-dimethyl-5,8,14,19,23-pentaoxooctadecahydro-1H,5H,14H,19H-pyrido[2,1-i]dipyrrolo[2,1-c:2′,1′-l][1]oxa[4,7,10,13]tetraazacyclohexadecin-20-yl)-2-(3-(4-(trifluoromethoxy)phenyl)ureido)propanamide] | 0.8 (≈ 0.691 µg/mL) | 0.04 (≈ 0.0346 µg/mL) | 0.08 (≈ 0.0691 µg/mL) | 0.04 (≈ 0.0346 µg/mL) | 0.05 (≈ 0.0432 µg/mL) | 0.15 (≈ 0.13 µg/mL) |  |  |  |  |  |  |  | 
3 | Cc1ccc(NC(=O)N[C@@H](Cc2cc(F)cc(F)c2)C(=O)N[C@@H]2C(=O)N3CCC[C@H]3C(=O)N3CCCC[C@H]3C(=O)N[C@@H](C)C(=O)N3CCC[C@H]3C(=O)O[C@H]2C)cc1 [Compound 15, (S)-3-(3,5-difluorophenyl)-N-((6S,8aS,14aS,20S,21S,23aS)-6,21-dimethyl-5,8,14,19,23-pentaoxooctadecahydro-1H,5H,14H,19H-pyrido[2,1-i]dipyrrolo[2,1-c:2′,1′-l][1]oxa[4,7,10,13]tetraazacyclohexadecin-20-yl)-2-(3-(p-tolyl)ureido)propanamide] ({NH(4-Me-phenyl)-CO}-[Phe(3,5-F2)][aThr]P[Pip]AP; ester 2-C) |  |  |  |  | 0.6 (≈ 0.476 µg/mL) |  | 0.3 (≈ 0.238 µg/mL) | 39.7 ± 6.6 | 0.3 (≈ 0.238 µg/mL) | 0.3 (≈ 0.238 µg/mL) | < 0.1 | < 0.1 | 100 | 0.6 (≈ 0.476 µg/mL)
4 | C[C@@H]1NC(=O)[C@@H]2CCCCN2C(=O)[C@@H]2CCCN2C(=O)[C@@H](NC(=O)[C@H](Cc2cc(F)cc(F)c2)NC(=O)Nc2ccc(C(F)(F)F)cc2)[C@H](C)OC(=O)[C@@H]2CCCN2C1=O [Compound 16, (S)-3-(3,5-difluorophenyl)-N-((6S,8aS,14aS,20S,21S,23aS)-6,21-dimethyl-5,8,14,19,23-pentaoxooctadecahydro-1H,5H,14H,19H-pyrido[2,1-i]dipyrrolo[2,1-c:2′,1′-l][1]oxa[4,7,10,13]tetraazacyclohexadecin-20-yl)-2-(3-(4-(trifluoromethyl)phenyl)ureido)propanamide] ({NHPh(4-CF3)-CO}-[Phe(3,5-F2)][aThr]P[Pip]AP; ester 2-C) |  |  |  |  | 0.4 (≈ 0.339 µg/mL) |  | 0.8 (≈ 0.678 µg/mL) | 74.3 ± 9 | 0.8 (≈ 0.678 µg/mL) | < 0.1 | 0.4 (≈ 0.339 µg/mL) | 0.8 (≈ 0.678 µg/mL) | 3.1 | 1.5 (≈ 1.27 µg/mL)
5 | Cc1ccc(NC(=O)N[C@@H](Cc2cc(F)cc(F)c2)C(=O)N[C@@H]2C(=O)N3CCC[C@H]3C(=O)N3CCCC[C@H]3C(=O)N[C@@H](C)C(=O)N3C[C@@H](C)C[C@H]3C(=O)O[C@H]2C)cc1 [Compound 18, (S)-3-(3,5-difluorophenyl)-2-(3-(p-tolyl)ureido)-N-((2R,6S,8aS,14aS,20S,21S,23aS)-2,6,21-trimethyl-5,8,14,19,23-pentaoxooctadecahydro-1H,5H,14H,19H-pyrido[2,1-i]dipyrrolo[2,1-c:2′,1′-l][1]oxa[4,7,10,13]tetraazacyclohexadecin-20-yl)propanamide] ({NH(4-Me-phenyl)-CO}-[Phe(3,5-F2)][aThr]P[Pip]A[Pro(4S-Me)]; ester 2-C) |  |  |  |  | 0.1 (≈ 0.0808 µg/mL) |  | < 0.1 | 26.7 ± 3.6 | 0.1 (≈ 0.0808 µg/mL) | 0.8 (≈ 0.646 µg/mL) | < 0.1 | 0.1 (≈ 0.0808 µg/mL) | 100 | < 0.1
6 | C[C@H]1C[C@H]2C(=O)O[C@@H](C)[C@H](NC(=O)[C@H](Cc3cc(F)cc(F)c3)NC(=O)Nc3ccc(C(F)(F)F)cc3)C(=O)N3CCC[C@H]3C(=O)N3CCCC[C@H]3C(=O)N[C@@H](C)C(=O)N2C1 [Compound 19, (S)-3-(3,5-difluorophenyl)-2-(3-(4-(trifluoromethyl)phenyl)ureido)-N-((2R,6S,8aS,14aS,20S,21S,23aS)-2,6,21-trimethyl-5,8,14,19,23-pentaoxooctadecahydro-1H,5H,14H,19H-pyrido[2,1-i]dipyrrolo[2,1-c:2′,1′-l][1]oxa[4,7,10,13]tetraazacyclohexadecin-20-yl)propanamide] ({NHPh(4-CF3)-CO}-[Phe(3,5-F2)][aThr]P[Pip]A[Pro(4S-Me)]; ester 2-C) |  |  |  |  | 0.1 (≈ 0.0862 µg/mL) |  | 0.8 (≈ 0.689 µg/mL) | 36.8 ± 4.1 | 0.1 (≈ 0.0862 µg/mL) | 0.39 (≈ 0.336 µg/mL) | < 0.1 | 0.1 (≈ 0.0862 µg/mL) | 6.2 | 0.4 (≈ 0.345 µg/mL)
7 | Cc1ccc(NC(=O)N[C@@H](Cc2ccccc2)C(=O)N[C@H]2COC(=O)[C@@H]3C[C@@H](C)CN3C(=O)[C@H](C)NC(=O)[C@@H]3CCCCN3C(=O)[C@@H]3CCCN3C2=O)cc1 [Compound 23, (S)—N-((2R,6S,8aS,14aS,20S,23aS)-2,6-dimethyl-5,8,14,19,23-pentaoxooctadecahydro-1H,5H,14H,19H-pyrido[2,1-i]dipyrrolo[2,1-c:2′,1′-l][1]oxa[4,7,10,13]tetraazacyclohexadecin-20-yl)-3-phenyl-2-(3-(p-tolyl)ureido)propanamide] |  |  |  |  | 0.4 (≈ 0.303 µg/mL) |  | < 0.2 | 74 ± 7.7 | 0.4 (≈ 0.303 µg/mL) | < 0.2 | < 0.2 | 0.1 (≈ 0.0758 µg/mL) |  | < 0.2
8 | Cc1ccc(NC(=O)N[C@@H](Cc2ccccc2)C(=O)N[C@H]2COC(=O)C3C[C@H](C)CN3C(=O)[C@H](C)NC(=O)C3CCCCN3C(=O)C3CCCN3C2=O)cc1 (stereo partly drawn) [Compound 43, (S)—N-((2S,6S,8aS,14aS,20S,23aS)-2,6-dimethyl-5,8,14,19,23-pentaoxooctadecahydro-1H,5H,14H,19H-pyrido[2,1-i]dipyrrolo[2,1-c:2′,1′-l][1]oxa[4,7,10,13]tetraazacyclohexadecin-20-yl)-3-phenyl-2-(3-(p-tolyl)ureido)propanamide] |  |  |  |  | 1.6 (≈ 1.21 µg/mL) |  | 0.2 (≈ 0.152 µg/mL) | 74.5 ± 8.8 | 1.6 (≈ 1.21 µg/mL) |  | 0.4 (≈ 0.303 µg/mL) | 3.1 (≈ 2.35 µg/mL) | >200 | 0.8 (≈ 0.606 µg/mL)

Source: patent US10457707B2, “Substituted urea depsipeptide analogs as activators of the CLPP endopeptidase” (priority 2015, dated 2019)
